Reference: patent US6525001B1, “Substituted pyrimidine and pyridine herbicides” (Mid-American Commercialization Corporation, priority 1997, dated 2003)

Key:
Type in all cases: in vivo
Set-up in all cases: key: 0 is no effect; 10 is complete control
[1] = tested on: bedstraw (Galium aparine); test: Test B pre-/postemergence
Text: (§1) Seeds of bedstraw (Galium aparine), blackgrass (Alopecurus myosuroides), broadleaf signalgrass (Brachiaria decumbens), cocklebur (Xanthium strumarium), corn (Zea mays), crabgrass (Digitaria sanguinalis), giant foxtail (Setaria faberii), lambsquarters (Chenopodium album), momingglory (Ipomoea hederacea), pigweed (Amaranthus retroflexus), rape (Brassica napus), soybean (Glycine max), sugar beet (Beta vulgaris), velvetleaf (Abutilon theophrasti), wheat (Triticum aestivum), wild oat (Avena fatua) and purple nutsedge (Cyperus rotundus) tubers were planted and treated preemergence with test chemicals formulated in a non-phytotoxic solvent mixture which included a surfactant.
(§2) At the same time, these crop and weed species were also treated with postemergence applications of test chemicals formulated in the same manner. Plants ranged in height from 2 to 18 cm (1- to 4-leaf stage) for postemergence treatments. Plant species in the flood test consisted of rice (Oryza sativa), smallflower flatsedge (Cyperus difformis), duck salad (Heteranthera limosa) and bamyardgrass (Echinochloa crus-galli) grown to the 2-leaf stage for testing. Treated plants and controls were maintained in a greenhouse for twelve to sixteen days, after which all species were compared to controls and visually evaluated. Plant response ratings, summarized in Table B, are based on a scale of 0 to 10 where 0 is no effect and 10 is complete control. A dash (−) response means no test result.

[2] = tested on: blackgrass (Alopecurus myosuroides); test: Test B pre-/postemergence
Text: as §1, §2

[3] = tested on: broadleaf signalgrass (Brachiaria decumbens); test: Test B pre-/postemergence
Text: as §1, §2

[4] = tested on: cocklebur (Xanthium strumarium); test: Test B pre-/postemergence
Text: as §1, §2

corn (Zea mays) = test: Test B pre-/postemergence
Text: as §1, §2

[5] = tested on: crabgrass (Digitaria sanguinalis); test: Test B pre-/postemergence
Text: as §1, §2

[6] = tested on: giant foxtail (Setaria faberii); test: Test B pre-/postemergence
Text: as §1, §2

[7] = tested on: momingglory (Ipomoea hederacea); test: Test B pre-/postemergence
Text: as §1, §2

[8] = tested on: pigweed (Amaranthus retroflexus); test: Test B pre-/postemergence
Text: as §1, §2

[9] = tested on: purple nutsedge (Cyperus rotundus); test: Test B pre-/postemergence
Text: as §1, §2

rape (Brassica napus) = test: Test B pre-/postemergence
Text: as §1, §2

soybean (Glycine max) = test: Test B pre-/postemergence
Text: as §1, §2

[10] = tested on: sugar beet (Beta vulgaris); test: Test B pre-/postemergence
Text: as §1, §2

[11] = tested on: velvetleaf (Abutilon theophrasti); test: Test B pre-/postemergence
Text: as §1, §2

[12] = tested on: wheat (Triticum aestivum); test: Test B pre-/postemergence
Text: as §1, §2

wild oat (Avena fatua) = test: Test B pre-/postemergence
Text: as §1, §2

[13] = tested on: bamyardgrass (Echinochloa crus-galli); test: Test B flood test
Method in brief: (§3)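 Read-out is a visual response score from 0 (no effect) to 10 (complete control), assigned by comparison with untreated controls. Treatment was applied at the 2-leaf stage, and plants stayed in the greenhouse for twelve to sixteen days before scoring.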

[14] = tested on: duck salad (Heteranthera limosa); test: Test B flood test
Method in brief: as §3

rice (Oryza sativa) = test: Test B flood test
Method in brief: as §3

[15] = tested on: smallflower flatsedge (Cyperus difformis); test: Test B flood test
Method in brief: as §3

[16] = Preemergence, Rate 62 g/ha, scale of 0 to 10
[17] = Rate 62 g/ha, Postemergence (flood test)
[18] = Rate 125 g/ha, Postemergence section (flood test species)
[19] = Rate 250 g/ha, Postemergence (flood test species)

O=C(c1cccc(C(F)(F)F)c1)c1ccnc(-n2ccc(C(F)(F)F)n2)n1 [Compound 70]
Plant response rating, Bedstraw [1, 16]: 0
Bedstraw plant response rating ([1]; Rate 62 g/ha, Postemergence): 1
Bedstraw plant response rating ([1]; Rate 125 g/ha, Postemergence): 1
Plant response rating, Bedstraw ([1]; Rate 125 g/ha, Preemergence): 0
Plant response rating, Bedstraw ([1]; Rate 250 g/ha, Postemergence): 1
Plant response rating, Bedstraw ([1]; Rate 250 g/ha, Preemergence): 0
Plant response rating, Blackgrass [2, 16]: 0
Blackgrass plant response rating ([2]; Rate 62 g/ha, Postemergence): 0
Blackgrass plant response rating ([2]; Rate 125 g/ha, Postemergence): 0
Plant response rating, Blackgrass ([2]; Rate 125 g/ha, Preemergence): 0
Plant response rating, Blackgrass ([2]; Rate 250 g/ha, Postemergence): 0
Plant response rating, Blackgrass ([2]; Rate 250 g/ha, Preemergence): 0
B. signalgrass plant response rating ([3]; Rate 62 g/ha, Postemergence): 0
B. signalgrass plant response rating ([3]; Rate 62 g/ha, Preemergence): 0
B. signalgrass plant response rating ([3]; Rate 125 g/ha, Postemergence): 0
Plant response rating, B. signalgrass ([3]; Rate 125 g/ha, Preemergence): 0
Plant response rating, B. signalgrass ([3]; Rate 250 g/ha, Postemergence): 1
Plant response rating, B. signalgrass ([3]; Rate 250 g/ha, Preemergence): 0
Plant response rating, Cocklebur [4, 16]: 0
Cocklebur plant response rating ([4]; Rate 62 g/ha, Postemergence): 1
Cocklebur plant response rating ([4]; Rate 125 g/ha, Postemergence): 2
Plant response rating, Cocklebur ([4]; Rate 125 g/ha, Preemergence): 0
Plant response rating, Cocklebur ([4]; Rate 250 g/ha, Postemergence): 2
Plant response rating, Cocklebur ([4]; Rate 250 g/ha, Preemergence): 0
Plant response rating, Corn (corn (Zea mays); [16]): 0
Corn plant response rating (corn (Zea mays); Rate 62 g/ha, Postemergence): 1
Corn plant response rating (corn (Zea mays); Rate 125 g/ha, Postemergence): 1
Plant response rating, Corn (corn (Zea mays); Rate 125 g/ha, Preemergence): 0
Plant response rating, Corn (corn (Zea mays); Rate 250 g/ha, Postemergence): 2
Plant response rating, Corn (corn (Zea mays); Rate 250 g/ha, Preemergence): 0
Plant response rating, Crabgrass [5, 16]: 0
Crabgrass plant response rating ([5]; Rate 62 g/ha, Postemergence): 0
Crabgrass plant response rating ([5]; Rate 125 g/ha, Postemergence): 1
Plant response rating, Crabgrass ([5]; Rate 125 g/ha, Preemergence): 0
Plant response rating, Crabgrass ([5]; Rate 250 g/ha, Postemergence): 1
Plant response rating, Crabgrass ([5]; Rate 250 g/ha, Preemergence): 0
Plant response rating, Giant foxtail [6, 16]: 0
Giant foxtail plant response rating ([6]; Rate 62 g/ha, Postemergence): 0
Giant foxtail plant response rating ([6]; Rate 125 g/ha, Postemergence): 0
Plant response rating, Giant foxtail ([6]; Rate 125 g/ha, Preemergence): 0
Plant response rating, Giant foxtail ([6]; Rate 250 g/ha, Postemergence): 0
Plant response rating, Giant foxtail ([6]; Rate 250 g/ha, Preemergence): 0
Plant response rating, Morningglory [7, 16]: 0
Morningglory plant response rating ([7]; Rate 62 g/ha, Postemergence): 1
Morningglory plant response rating ([7]; Rate 125 g/ha, Postemergence): 1
Plant response rating, Morningglory ([7]; Rate 125 g/ha, Preemergence): 0
Plant response rating, Morningglory ([7]; Rate 250 g/ha, Postemergence): 2
Plant response rating, Morningglory ([7]; Rate 250 g/ha, Preemergence): 0
Plant response rating, Redroot pigweed [8, 16]: 0
Redroot pigweed plant response rating ([8]; Rate 62 g/ha, Postemergence): 0
Redroot pigweed plant response rating ([8]; Rate 125 g/ha, Postemergence): 2
Plant response rating, Redroot pigweed ([8]; Rate 125 g/ha, Preemergence): 0
Plant response rating, Redroot pigweed ([8]; Rate 250 g/ha, Postemergence): 3
Plant response rating, Redroot pigweed ([8]; Rate 250 g/ha, Preemergence): 0
Plant response rating, Nutsedge [9, 16]: 0
Nutsedge plant response rating ([9]; Rate 62 g/ha, Postemergence): 0
Nutsedge plant response rating ([9]; Rate 125 g/ha, Postemergence): 0
Plant response rating, Nutsedge ([9]; Rate 125 g/ha, Preemergence): 0
Plant response rating, Nutsedge ([9]; Rate 250 g/ha, Postemergence): 0
Plant response rating, Rape (rape (Brassica napus); [16]): 0
Rape plant response rating (rape (Brassica napus); Rate 62 g/ha, Postemergence): 0
Rape plant response rating (rape (Brassica napus); Rate 125 g/ha, Postemergence): 1
Plant response rating, Rape (rape (Brassica napus); Rate 125 g/ha, Preemergence): 0
Plant response rating, Rape (rape (Brassica napus); Rate 250 g/ha, Postemergence): 1
Plant response rating, Rape (rape (Brassica napus); Rate 250 g/ha, Preemergence): 0
Plant response rating, Soybean (soybean (Glycine max); [16]): 0
Soybean plant response rating (soybean (Glycine max); Rate 62 g/ha, Postemergence): 1
Soybean plant response rating (soybean (Glycine max); Rate 125 g/ha, Postemergence): 2
Plant response rating, Soybean (soybean (Glycine max); Rate 125 g/ha, Preemergence): 0
Plant response rating, Soybean (soybean (Glycine max); Rate 250 g/ha, Postemergence): 3
Plant response rating, Soybean (soybean (Glycine max); Rate 250 g/ha, Preemergence): 0
Plant response rating, Sugarbeets [10, 16]: 0
Sugarbeets plant response rating ([10]; Rate 62 g/ha, Postemergence): 0
Sugarbeets plant response rating ([10]; Rate 125 g/ha, Postemergence): 1
Plant response rating, Sugarbeets ([10]; Rate 125 g/ha, Preemergence): 0
Plant response rating, Sugarbeets ([10]; Rate 250 g/ha, Postemergence): 2
Plant response rating, Sugarbeets ([10]; Rate 250 g/ha, Preemergence): 0
Plant response rating, Velvetleaf [11, 16]: 0
Velvetleaf plant response rating ([11]; Rate 62 g/ha, Postemergence): 0
Velvetleaf plant response rating ([11]; Rate 125 g/ha, Postemergence): 1
Plant response rating, Velvetleaf ([11]; Rate 125 g/ha, Preemergence): 0
Plant response rating, Velvetleaf ([11]; Rate 250 g/ha, Postemergence): 1
Plant response rating, Velvetleaf ([11]; Rate 250 g/ha, Preemergence): 0
Plant response rating, Wheat [12, 16]: 0
Wheat plant response rating ([12]; Rate 62 g/ha, Postemergence): 0
Wheat plant response rating ([12]; Rate 125 g/ha, Postemergence): 0
Plant response rating, Wheat ([12]; Rate 125 g/ha, Preemergence): 0
Plant response rating, Wheat ([12]; Rate 250 g/ha, Postemergence): 0
Plant response rating, Wheat ([12]; Rate 250 g/ha, Preemergence): 0
Plant response rating, Wild oats (wild oat (Avena fatua); [16]): 0
Wild oats plant response rating (wild oat (Avena fatua); Rate 62 g/ha, Postemergence): 0
Wild oats plant response rating (wild oat (Avena fatua); Rate 125 g/ha, Postemergence): 0
Plant response rating, Wild oats (wild oat (Avena fatua); Rate 125 g/ha, Preemergence): 0
Plant response rating, Wild oats (wild oat (Avena fatua); Rate 250 g/ha, Postemergence): 0
Plant response rating, Wild oats (wild oat (Avena fatua); Rate 250 g/ha, Preemergence): 0
Barnyardgrass plant response rating [13, 17]: 0
Barnyardgrass plant response rating [13, 18]: 0
Plant response rating, Barnyardgrass [13, 19]: 0
Ducksalad plant response rating [14, 17]: 0
Ducksalad plant response rating [14, 18]: 0
Plant response rating, Ducksalad [14, 19]: 0
Rice plant response rating (rice (Oryza sativa); [17]): 0
Rice plant response rating (rice (Oryza sativa); [18]): 0
Plant response rating, Rice (rice (Oryza sativa); [19]): 0
S. Flatsedge plant response rating [15, 17]: 0
S. Flatsedge plant response rating [15, 18]: 0
Plant response rating, S. Flatsedge [15, 19]: 0
